Results from US20230101022A1, “GINSENOSIDE M1 AS A MODULATOR OF A[…] AND ITS USE FOR TREATING DISEASES OR […] SYMPTOMS CAUSED BY CORONAVIRUS” (priority 2020, published 2023).

What was measured:
ACE2 [1] = test: IHC of ACE2 in the renal tissue of SHR/WKY rats; assay type: in vivo, rat; details: SHR, 20 mg/kg oral once daily for 42 days, IHC (FIG. 2)
Protocol: (§1) A total of 20 Wistar-Kyoto rats (WKY) and 20 SHR (male, 16˜17 weeks old) animals were grouped into four: WKY group (8 WKY, orally administered 0.5% CMC-Na); SHR group (8 SHR, orally administered 0.5% CMC-Na); WKY+Ginsenoside M1 group (8 WKY, orally administered 20 mg/kgGinsenoside M1); SHR +Ginsenoside M1 group (8 SHR, orally administered 20 mg/kg Ginsenoside M1). Ginsenoside M1 or placebo administration was carried out once daily for 42 days is was followed by animal sacrifice and blood and renal tissue sample collection. The renal tissue specimens underwent fixation with 4% formalin (histopathology) or were snap-frozen with liquid nitrogen and kept at −80° C. for reverse transcription quantitative real-time polymerase chain reaction (RT-qPCR) and enzyme-linked immunosorbent assay (ELISA).
(§2) ACE and ACE2 primary antibodies were produced by Bioss Antibodies. Peroxidase-linked goat anti-rabbit secondary antibodies and the DAB and two-step rabbit IHC kits were provided by ZSGB-BIO. IHC was carried out as proposed by ZSGB-BIO.

ACE [2] = test: IHC of ACE in the renal tissue of mice (infusion model); assay type: in vivo; details: C57BL/6 mice infused saline or Ang II, 20 mg/kg oral daily for 14 days, IHC (FIG. 4)
Protocol: (§3) A total of twenty C57BL/6 mice (male, 10 weeks old) were maintained with rodent chow and water at will. Subcutaneous implantation of a 1002 osmotic minipump was performed at the dorsum of the neck for Ang II (1.5 mg/kg) or normal saline infusion animals were assigned to four groups: Saline group (5 mice, infused with normal saline and orally administered 0.5% CMC-Na); Ang II group (5 mice, infused with Ang II and orally administered 0.5% CMC-Na); Saline+Ginsenoside M1 group (5 mice, infused with normal saline and orally administered 20 mg·kg−1·d−1 Ginsenoside M1); Ang II +Ginsenoside M1 group (5 mice, infused with Ang II and orally administered 20 mg/kg Ginsenoside M1). Ginsenoside M1 or placebo administration was performed daily for 14 days, followed by animal sacrifice and blood and renal tissue sample collection. The renal tissue specimens underwent fixation with 4% formalin (histopathology) or were snap-frozen with liquid nitrogen and kept at −80° C. (RT-qPCR and ELISA).
as §2

[3] = tested on: Ang II and Ang-(1-7) levels in the renal tissue; test: Ang II and Ang-(1-7) level assessment in the renal tissue of SHR/WKY rats (ELISA); assay type: in vivo, rat; details: 20 mg/kg oral once daily for 42 days, ELISA (FIG. 1)
Protocol: as §1
(§4) The supernatants of renal specimens were prepared as follows. A total of 100 mg of the renal tissue was homogenized in 900 μL of ice-cold normal saline and submitted to centrifugation (1000 g, 4° C. for 15 min). The resulting supernatants were kept at −80° C. until analysis with Ang II and Ang-(1-7) ELISA kits, respectively, in accordance with the manufacturer's protocols.

ACE [4] = test: IHC of ACE in the renal tissue of SHR/WKY rats; assay type: in vivo, rat; details: either WKY or SHR, 20 mg/kg oral once daily for 42 days, IHC (FIG. 2)
Protocol: as §1, §2

ACE2 [5] = test: IHC of ACE2 in the renal tissue of mice (infusion model); assay type: in vivo; details: C57BL/6 mice infused Ang II, 20 mg/kg oral daily for 14 days, IHC (FIG. 4), vs the other three groups
Protocol: as §3, §2

[6] = tested on: Ang II and Ang-(1-7) levels in the renal tissue; test: Ang II and Ang-(1-7) level assessment in the renal tissue of mice infused Ang II (ELISA); assay type: in vivo; details: C57BL/6 mice infused Ang II, 20 mg/kg oral daily for 14 days, ELISA (FIG. 3), vs Ang II group
Protocol: as §3, §4

[7] = tested on: bleomycin-induced lung fibrosis; test: Bleomycin-induced lung alveolitis and fibrosis in mice (Szapiel scoring); assay type: in vivo
Protocol: The animals were randomly divided into 5 groups as: (1) Saline group: 0.9% saline (200 μL) injection via the tail vein; (2) ACE2 group: a single intraperitoneal injection of ACE2 (0.2 mg/kg); (3) BLM group: a single injection of bleomycin at 150 mg/kg via the tail vein; and (4) BLM+ACE2 group: an injection of bleomycin at 150 mg/kg via the tail vein, followed by an intraperitoneal injection of ACE2 at 0.2 mg/kg. (5) BLM+ACE2+M1 group: an injection of bleomycin at 150 mg/kg via the tail vein, followed by an intraperitoneal injection of 0.2 mg/kg ACE2 and 60mg/kg M1. After administration, ten animals randomly selected from each group were euthanized on days 7, 14 and 28 by cervical dislocation.
Administration of bleomycin is a well-characterized model of pulmonary alveolitis or fibrosis in mice. The fibrotic changes in the lungs were determined using the Szapiel scoring method, higher score indicating greater disease condition. […] On day 28, in the BLM group, alveolitis spontaneously resolved; however, derangement of the alveolar architecture continued, and fibrosis persisted, characterized by diffuse, dense, thick collagen bundles and fibroblast foci.

[8] = day 14, bleomycin 150 mg/kg tail vein, ACE2 0.2 mg/kg i.p.

Molecule	ACE2 amounts in the renal tissue (ACE2 [1])	ACE expression in the renal tissue (ACE [2])	Ang II levels in the renal tissue ([3]; SHR, vs SHR group)	Ang-(1-7) amounts in the renal tissue ([3]; SHR, vs SHR group)	Ang II levels in the renal tissue ([3]; WKY)	ACE expression in the renal tissue (ACE [4])	ACE2 expression levels in the renal tissue (ACE2 [5])	Ang II levels in the renal tissue [6]	Ang-(1-7) levels in the renal tissue [6]	Signs of alveolitis or fibrosis without bleomycin ([7]; ACE2 group: single i.p. injection 0.2 mg/kg, no bleomycin, days 7, 14 and 28)	Pathological changes in the lung (alveolitis) ([7]; day 7, bleomycin 150 mg/kg tail vein, ACE2 0.2 mg/kg i.p.)	Alveolitis (Szapiel scoring) [7, 8]	Fibrosis (Szapiel scoring) [7, 8]	Alveolitis (Szapiel scoring) ([7]; day 28, bleomycin 150 mg/kg tail vein, ACE2 0.2 mg/kg i.p., with or without M1 60 mg/kg)
CC(C)=CCC[C@](C)(O[C@@H]1O[C@H](CO)[C@@H](O)[C@H](O)[C@H]1O)[C@H]1CC[C@]2(C)[C@@H]1[C@H](O)C[C@@H]1[C@@]3(C)CC[C@H](O)C(C)(C)[C@@H]3CC[C@]12C [Ginsenoside M1, 20-O-β-D-glucopyranosyl-20(S)-protopanaxadiol]	further upregulate	no marked differences	significantly reduced	significantly higher values compared with the SHR group	limited effects	no significant effect	markedly elevated	attenuate this increase significantly	significant increase compared with the Ang II group	–	–	–	–	–
ACE2: recombinant mouse ACE2 (angiotensin-converting enzyme 2) given by intraperitoneal injection (protein, UniProt Q8R0I0 18-805, looked up) Angiotensin-converting enzyme …: QSLTEENAKTFLNNFNQEAEDLSYQSSLASWNYNTNITEENAQKMSEAAAKWSAFYEEQSKTAQSFSLQEIQTPIIKRQLQALQQSGSSALSADKNKQLNTILNTMSTIYSTGKVCNPKNPQECLLLEPGLDEIMATSTDYNSRLWAWEGWRAEVGKQLRPLYEEYVVLKNEMARANNYNDYGDYWRGDYEAEGADGYNYNRNQLIEDVERTFAEIKPLYEHLHAYVRRKLMDTYPSYISPTGCLPAHLLGDMWGRFWTNLYPLTVPFAQKPNIDVTDAMMNQGWDAERIFQEAEKFFVSVGLPHMTQGFWANSMLTEPADGRKVVCHPTAWDLGHGDFRIKMCTKVTMDNFLTAHHEMGHIQYDMAYARQPFLLRNGANEGFHEAVGEIMSLSAATPKHLKSIGLLPSDFQEDSETEINFLLKQALTIVGTLPFTYMLEKWRWMVFRGEIPKEQWMKKWWEMKREIVGVVEPLPHDETYCDPASLFHVSNDYSFIRYYTRTIYQFQFQEALCQAAKYNGSLHKCDISNSTEAGQKLLKMLSLGNSEPWTKALENVVGARNMDVKPLLNYFQPLFDWLKEQNRNSFVGWNTEWSPYADQSIKVRISLKSALGANAYEWTNNEMFLFRSSVAYAMRKYFSIIKNQTVPFLEEDVRVSDLKPRVSFYFFVTSPQNVSDVIPRSEVEDAIRMSRGRINDVFGLNDNSLEFLGIHPTLEPPYQPPVTIWLIIFGVVMALVVVGIIILIVTGIKGRKKKNETKREENPYDSMDIGKGESNAGFQNSDDAQTSF	–	–	–	–	–	–	–	–	–	No signs of alveolitis or fibrosis	did not significantly alter	significantly attenuated	significantly attenuated	only mild to moderate alveolitis
